These are literature values, as cited in patent US20080317845A1, “Duloxetine Formulation” (priority 2007, published 2008).

Counter-ions that a name gives are not always drawn.

`CNCC[C@H](Oc1cccc2ccccc12)c1cccs1` [duloxetine, (+)-(S)-N-methyl-y-(1-naphthyloxy)-2-thiophenepropylamine hydrochloride]: the “stability in acidic media” value is listed as “unstable”.
